According to patent publication US20100298141A1, “SUBSTITUTED PYRIDINE N-OXIDE HERBICIDES” (E. I. DU PONT DE NEMOURS AND COMPANY, priority 2007, published 2010):

Tests used:
[1] = system: redroot pigweed; assay: Test A pre-/postemergence greenhouse test; assay type: in vivo, Amaranthus retroflexus; settings: for Plant response rating, Pigweed: 0 to 100 scale where 0 is no effect and 100 is complete control; for Pigweed plant response rating: 0 to 100 scale
Outline: (§1)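 Sowing in loam/sand; same-day pre (directed soil spray) and post (foliar, 1–2 leaf, 2–10 cm) treatment with surfactant-containing non-phytotoxic solvent formulation; ~10 days in greenhouse; eye-scored injury against untreated plants.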

[2] = system: barnyardgrass; assay: Test C flooded paddy test; assay type: in vivo, Echinochloa crus-galli; settings: Flood
Outline: (§2)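 Visual injury ratings against untreated controls, taken 13 to 15 days after compound was added to paddy water standing 3 cm above the soil.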

[3] = system: eastern black nightshade; assay: Test C pre-/postemergence test; assay type: in vivo, Solanum ptycanthum
Outline: (§3)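 Seeds were planted and treated preemergence with test chemical in a non-phytotoxic solvent mixture containing surfactant. Postemergence applications of the same formulation went onto plants 2 to 18 cm tall (1- to 4-leaf stage). A dash marks no test result.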

[4] = system: lambsquarters; assay: Test C pre-/postemergence test; assay type: in vivo, Chenopodium album
Outline: as §3

[5] = system: giant foxtail; assay: Test A pre-/postemergence greenhouse test; assay type: in vivo, Setaria faberi; settings: for Plant response rating, Foxtail, Giant: 0 to 100 scale where 0 is no effect and 100 is complete control; for Foxtail, Giant plant response rating: 0 to 100 scale
Outline: as §1

[6] = system: Surinam grass; assay: Test C pre-/postemergence test; assay type: in vivo, Brachiaria decumbens
Outline: as §3

[7] = system: giant foxtail; assay: Test C pre-/postemergence test; assay type: in vivo, Setaria faberii
Outline: as §3

[8] = system: rice; assay: Test C flooded paddy test; assay type: in vivo, Oryza sativa; settings: Flood
Outline: as §2

[9] = system: corn; assay: Test A pre-/postemergence greenhouse test; assay type: in vivo, Zea mays; settings: for Plant response rating, Corn: 0 to 100 scale where 0 is no effect and 100 is complete control; for Corn plant response rating: 0 to 100 scale
Outline: as §1

[10] = system: bermudagrass; assay: Test C pre-/postemergence test; assay type: in vivo, Cynodon dactylon
Outline: as §3

[11] = system: wheat; assay: Test A pre-/postemergence greenhouse test; assay type: in vivo, Triticum aestivum; settings: for Wheat plant response rating: 0 to 100 scale
Outline: as §1

[12] = system: wild oat; assay: Test C pre-/postemergence test; assay type: in vivo, Avena fatua
Outline: as §3

[13] = system: common ragweed; assay: Test C pre-/postemergence test; assay type: in vivo, Ambrosia elation
Outline: as §3

[14] = system: velvetleaf; assay: Test C pre-/postemergence test; assay type: in vivo, Abutilon theophrasti
Outline: as §3

[15] = system: Goosegrass; assay: Test C pre-/postemergence test; assay type: in vivo, Eleusin indica
Outline: as §3

[16] = system: johnsongrass; assay: Test C pre-/postemergence test; assay type: in vivo, Sorghum halepense
Outline: as §3

[17] = system: velvetleaf; assay: Test A pre-/postemergence greenhouse test; assay type: in vivo, Abutilon theophrasti; settings: for Velvetleaf plant response rating: 0 to 100 scale
Outline: as §1

[18] = system: duck salad; assay: Test C flooded paddy test; assay type: in vivo, Heteranthera limosa; settings: Flood
Outline: as §2

[19] = Postemergence, 500 g ai/ha, 0 is no effect, 100 is complete control
[20] = Preemergence, 125 g ai/ha, 0 no effect, 100 complete control
[21] = 62 g ai/ha, scale 0 to 100 (0 no effect, 100 complete control)
[22] = 250 g ai/ha, scale 0 to 100, 0 no effect, 100 complete control, 13 to 15 days
[23] = 62 g ai/ha, Preemergence, scale 0 to 100
[24] = 125 g ai/ha, preemergence, scale 0 (no effect) to 100 (complete control)
[25] = Preemergence, 31 g ai/ha, scale 0 to 100 (0 no effect, 100 complete control)
[26] = preemergence, 250 g ai/ha, scale 0 (no effect) to 100 (complete control)
[27] = Postemergence, 125 g ai/ha, 0 to 100 scale where 0 is no effect and 100 is complete control
[28] = Preemergence, 500 g ai/ha, 0 no effect, 100 complete control

In the case of Cn1nc(C(F)(F)C(F)(F)F)c(C[S+]([O-])c2ccc(Cl)c[n+]2[O-])c1OCC(F)(F)F (centres unmarked) [Compound 92], the “Plant response rating, Pigweed” value ([1]; Postemergence, 125 g ai/ha) is reported as 50, the “Pigweed plant response rating” value [1, 19] is reported as 100 and the “Pigweed plant response rating” value [1, 20] is reported as 100. The “Plant response rating, Pigweed” value ([1]; Preemergence, 500 g ai/ha) was 100, the “Plant response rating, Barnyardgrass” value [2, 21] was 0 and the “Plant response rating, Barnyardgrass” value [2, 22] was 75. For the same compound, the “Nightshade plant response rating” value [3, 23] was 80, the “Nightshade plant response rating” value [3, 24] was 100 and the “Plant response rating, Nightshade” value [3, 25] was 60. For the same compound, the “Nightshade plant response rating” value [3, 26] was 100, the “Lambsquarters plant response rating” value [4, 23] was 100 and the “Lambsquarters plant response rating” value [4, 24] was 100. For the same compound, the “Plant response rating, Lambsquarters” value [4, 25] was 100, the “Lambsquarters plant response rating” value [4, 26] was 100 and the “Plant response rating, Foxtail, Giant” value ([5]; Postemergence, 125 g ai/ha) was 80. For the same compound, the “Foxtail, Giant plant response rating” value [5, 19] was 90, the “Foxtail, Giant plant response rating” value [5, 20] was 90 and the “Plant response rating, Foxtail, Giant” value ([5]; Preemergence, 500 g ai/ha) was 100. For the same compound, the “Surinam Grass plant response rating” value [6, 23] was 98, the “Surinam Grass plant response rating” value [6, 24] was 100 and the “Plant response rating, Surinam Grass” value [6, 25] was 70. For the same compound, the “Surinam Grass plant response rating” value [6, 26] was 100, the “Foxtail, Giant plant response rating” value [7, 23] was 100 and the “Foxtail, Giant plant response rating” value [7, 24] was 100. The “Plant response rating, Foxtail, Giant” value [7, 25] was 98, the “Foxtail, Giant plant response rating” value [7, 26] was 100 and the “Plant response rating, Rice” value [8, 21] was 30. The “Plant response rating, Rice” value [8, 22] was 50, the “Plant response rating, Corn” value ([9]; Postemergence, 125 g ai/ha) was 70 and the “Corn plant response rating” value [9, 19] was 80. For the same compound, the “Corn plant response rating” value [9, 20] was 60, the “Plant response rating, Corn” value ([9]; Preemergence, 500 g ai/ha) was 90 and the “Bermudagrass plant response rating” value ([10]; 62 g ai/ha, Preemergence, scale 0 to 100 (0 no effect, 100 complete control)) was 100. The “Bermudagrass plant response rating” value [10, 24] was 100, the “Plant response rating, Bermudagrass” value [10, 25] was 100 and the “Bermudagrass plant response rating” value [10, 26] was 100. For the same compound, the “Plant response rating, Wheat” value [11, 27] was 70, the “Wheat plant response rating” value [11, 19] was 70 and the “Wheat plant response rating” value [11, 20] was 70. For the same compound, the “Wheat plant response rating” value [11, 28] was 90, the “Oat, Wild plant response rating” value [12, 23] was 85 and the “Oat, Wild plant response rating” value [12, 24] was 90. For the same compound, the “Plant response rating, Oat, Wild” value [12, 25] was 60, the “Oat, Wild plant response rating” value [12, 26] was 100 and the “Ragweed plant response rating” value [13, 23] was 85. The “Ragweed plant response rating” value [13, 24] was 100, the “Ragweed plant response rating” value [13, 26] was 100 and the “Velvetleaf plant response rating” value [14, 23] was 50. For the same compound, the “Velvetleaf plant response rating” value [14, 24] was 100, the “Plant response rating, Velvetleaf” value [14, 25] was 50 and the “Velvetleaf plant response rating” value [14, 26] was 100. For the same compound, the “Goosegrass plant response rating” value [15, 23] was 90, the “Goosegrass plant response rating” value [15, 24] was 90 and the “Plant response rating, Goosegrass” value [15, 25] was 90. The “Goosegrass plant response rating” value [15, 26] was 100, the “Johnsongrass plant response rating” value [16, 23] was 98 and the “Johnsongrass plant response rating” value [16, 24] was 100. The “Plant response rating, Johnsongrass” value [16, 25] was 80, the “Johnsongrass plant response rating” value [16, 26] was 100 and the “Plant response rating, Velvetleaf” value [17, 27] was 50. The “Velvetleaf plant response rating” value [17, 19] was 90, the “Velvetleaf plant response rating” value [17, 20] was 30 and the “Velvetleaf plant response rating” value [17, 28] was 100. For the same compound, the “Plant response rating, Ducksalad” value [18, 21] was 55 and the “Plant response rating, Ducksalad” value [18, 22] was 100.
